# Measurements taken from PubChem BioAssay AID1963422 (Molecular Pharmacology Branch, DTP, NCI, 2024).
# System: 463943-066-T-J2-PDC complex spheroid growth
# Test: Anticancer human tumor 463943-066-T-J2-PDC patient-derived colon adenocarcinoma cell line growth inhibition [Asc]
# Details: for IC50: curve of first compound; for viability, T/C: stronger effect = lower value
# How it was run: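 Stromal components (HUVEC and hMSC) are co-assembled with the cancer cells into multicellular spheroids. Drugs are then added singly or paired, at concentrations falling by half-log increments from a clinically achievable maximum, capped at 10 microM without known Cmax.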
# [1] = second compound 0.0316 µM, first compound 0.0316 µM
# [2] = second compound 0.0316 µM, first compound 0.1 µM
# [3] = second compound 0.0316 µM, first compound 0.316 µM
# [4] = second compound 0.0316 µM, first compound 1 µM
# [5] = second compound 0.0316 µM, first compound 3.16 µM
# [6] = second compound 0.0316 µM, first compound 10 µM
# [7] = second compound 0.1 µM, first compound 0.0316 µM
# [8] = second compound 0.1 µM, first compound 0.1 µM
# [9] = second compound 0.1 µM, first compound 0.316 µM
# [10] = second compound 0.1 µM, first compound 1 µM
# [11] = second compound 0.1 µM, first compound 3.16 µM
# [12] = second compound 0.1 µM, first compound 10 µM
# [13] = second compound 0.316 µM, first compound 0.0316 µM
# [14] = second compound 0.316 µM, first compound 0.1 µM
# [15] = second compound 0.316 µM, first compound 0.316 µM
# [16] = second compound 0.316 µM, first compound 1 µM
# [17] = second compound 0.316 µM, first compound 3.16 µM
# [18] = second compound 0.316 µM, first compound 10 µM
# [19] = second compound 1 µM, first compound 0.0316 µM
# [20] = second compound 1 µM, first compound 0.1 µM
# [21] = second compound 1 µM, first compound 0.316 µM
# [22] = second compound 1 µM, first compound 1 µM
# [23] = second compound 1 µM, first compound 3.16 µM
# [24] = second compound 1 µM, first compound 10 µM
# 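Also: compound exposure lasted 7 days.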
# 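For viability, T/C in this document: 100% = DMSO vehicle control wells.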
smiles,measurement,setting,value
C#Cc1c(F)ccc2cc(O)cc(-c3ncc4c(N5CC6CCC(C5)N6)nc(OCC56CCCN5CC(F)C6)nc4c3F)c12 (stereo unspecified) + CNC(C)C(=O)NC1CN(S(=O)(=O)c2cccc(S(=O)(=O)N3CCC4CCC(C(=O)NC(c5ccccc5)c5ccccc5)N4C(=O)C(NC(=O)C(C)NC)C3)c2)CCC2CCC(C(=O)NC(c3ccccc3)c3ccccc3)N2C1=O,IC50,second compound 0.00316 µM,> 10 µM
same,IC50,second compound 0.01 µM,> 10 µM
same,IC50,second compound 0.0316 µM,> 10 µM
same,IC50,second compound 0.1 µM,> 10 µM
same,IC50,second compound 0.316 µM,> 10 µM
same,IC50,second compound 1 µM,> 10 µM
same,"viability, T/C","second compound 0.00316 µM, first compound 0.0316 µM",105%
same,"viability, T/C","second compound 0.00316 µM, first compound 0.1 µM",103%
same,"viability, T/C","second compound 0.00316 µM, first compound 0.316 µM",94.3%
same,"viability, T/C","second compound 0.00316 µM, first compound 1 µM",123%
same,"viability, T/C","second compound 0.00316 µM, first compound 3.16 µM",94%
same,"viability, T/C","second compound 0.00316 µM, first compound 10 µM",99.5%
same,"viability, T/C","second compound 0.01 µM, first compound 0.0316 µM",101%
same,"viability, T/C","second compound 0.01 µM, first compound 0.1 µM",99.9%
same,"viability, T/C","second compound 0.01 µM, first compound 0.316 µM",97.4%
same,"viability, T/C","second compound 0.01 µM, first compound 1 µM",102%
same,"viability, T/C","second compound 0.01 µM, first compound 3.16 µM",99.3%
same,"viability, T/C","second compound 0.01 µM, first compound 10 µM",101%
same,"viability, T/C",[1],102%
same,"viability, T/C",[2],101%
same,"viability, T/C",[3],94.3%
same,"viability, T/C",[4],103%
same,"viability, T/C",[5],100%
same,"viability, T/C",[6],91.3%
same,"viability, T/C",[7],109%
same,"viability, T/C",[8],92%
same,"viability, T/C",[9],98%
same,"viability, T/C",[10],94.6%
same,"viability, T/C",[11],101%
same,"viability, T/C",[12],85.7%
same,"viability, T/C",[13],88%
same,"viability, T/C",[14],94.2%
same,"viability, T/C",[15],89.6%
same,"viability, T/C",[16],93.3%
same,"viability, T/C",[17],100%
same,"viability, T/C",[18],81.8%
same,"viability, T/C",[19],90.7%
same,"viability, T/C",[20],85.6%
same,"viability, T/C",[21],80.8%
same,"viability, T/C",[22],87.7%
same,"viability, T/C",[23],85.6%
same,"viability, T/C",[24],72%
Cc1nc(N2CCC3(CC2)COC(C)C3N)c(CO)nc1Sc1ccnc(N)c1Cl (stereo unspecified) + CNC(C)C(=O)NC1CN(S(=O)(=O)c2cccc(S(=O)(=O)N3CCC4CCC(C(=O)NC(c5ccccc5)c5ccccc5)N4C(=O)C(NC(=O)C(C)NC)C3)c2)CCC2CCC(C(=O)NC(c3ccccc3)c3ccccc3)N2C1=O,IC50,second compound 0.00316 µM,> 3 µM
same,IC50,second compound 0.01 µM,> 3 µM
same,IC50,second compound 0.0316 µM,> 3 µM
same,IC50,second compound 0.1 µM,> 3 µM
same,IC50,second compound 0.316 µM,> 3 µM
same,IC50,second compound 1 µM,> 3 µM
same,"viability, T/C","second compound 0.00316 µM, first compound 0.00949 µM",106%
same,"viability, T/C","second compound 0.00316 µM, first compound 0.03 µM",84.2%
same,"viability, T/C","second compound 0.00316 µM, first compound 0.0949 µM",85.5%
same,"viability, T/C","second compound 0.00316 µM, first compound 0.3 µM",86.6%
same,"viability, T/C","second compound 0.00316 µM, first compound 0.949 µM",81%
same,"viability, T/C","second compound 0.00316 µM, first compound 3 µM",70.3%
same,"viability, T/C","second compound 0.01 µM, first compound 0.00949 µM",96.2%
same,"viability, T/C","second compound 0.01 µM, first compound 0.03 µM",95.6%
same,"viability, T/C","second compound 0.01 µM, first compound 0.0949 µM",83.1%
same,"viability, T/C","second compound 0.01 µM, first compound 0.3 µM",85.5%
same,"viability, T/C","second compound 0.01 µM, first compound 0.949 µM",77.1%
same,"viability, T/C","second compound 0.01 µM, first compound 3 µM",71.8%
same,"viability, T/C","second compound 0.0316 µM, first compound 0.00949 µM",95.4%
same,"viability, T/C","second compound 0.0316 µM, first compound 0.03 µM",94.7%
same,"viability, T/C","second compound 0.0316 µM, first compound 0.0949 µM",81.3%
same,"viability, T/C","second compound 0.0316 µM, first compound 0.3 µM",78.8%
same,"viability, T/C","second compound 0.0316 µM, first compound 0.949 µM",77.6%
same,"viability, T/C","second compound 0.0316 µM, first compound 3 µM",69.1%
same,"viability, T/C","second compound 0.1 µM, first compound 0.00949 µM",96.8%
same,"viability, T/C","second compound 0.1 µM, first compound 0.03 µM",87%
same,"viability, T/C","second compound 0.1 µM, first compound 0.0949 µM",89.1%
same,"viability, T/C","second compound 0.1 µM, first compound 0.3 µM",88.1%
same,"viability, T/C","second compound 0.1 µM, first compound 0.949 µM",73.2%
same,"viability, T/C","second compound 0.1 µM, first compound 3 µM",66.3%
same,"viability, T/C","second compound 0.316 µM, first compound 0.00949 µM",92.3%
same,"viability, T/C","second compound 0.316 µM, first compound 0.03 µM",92.5%
same,"viability, T/C","second compound 0.316 µM, first compound 0.0949 µM",88.8%
same,"viability, T/C","second compound 0.316 µM, first compound 0.3 µM",83%
same,"viability, T/C","second compound 0.316 µM, first compound 0.949 µM",73.6%
same,"viability, T/C","second compound 0.316 µM, first compound 3 µM",66.5%
same,"viability, T/C","second compound 1 µM, first compound 0.00949 µM",84.1%
same,"viability, T/C","second compound 1 µM, first compound 0.03 µM",82.2%
same,"viability, T/C","second compound 1 µM, first compound 0.0949 µM",82%
same,"viability, T/C","second compound 1 µM, first compound 0.3 µM",73.5%
same,"viability, T/C","second compound 1 µM, first compound 0.949 µM",69.3%
same,"viability, T/C","second compound 1 µM, first compound 3 µM",64%
O=C(c1cc(Cc2n[nH]c(=O)c3ccccc23)ccc1F)N1CCN(C(=O)C2CC2)CC1 + Cc1c(S(C)(=O)=O)c(-c2cc(F)cc(N3CCN(c4ccc(NS(=O)(=O)c5ccc(NC(CCN6CCC(C(=O)OCCCP(=O)(O)O)CC6)CSc6ccccc6)c(S(=O)(=O)C(F)(F)F)c5)cc4)CC3)c2)c(-c2ccc(Cl)cc2)n1C(C)C,IC50,second compound 0.0316 µM,> 10 µM
same,IC50,second compound 0.1 µM,> 10 µM
same,IC50,second compound 0.316 µM,> 10 µM
same,IC50,second compound 1 µM,> 10 µM
same,IC50,second compound 3.16 µM,> 10 µM
same,IC50,second compound 10 µM,1.16 µM
same,"viability, T/C",[1],95.1%
same,"viability, T/C",[2],90%
same,"viability, T/C",[3],93%
same,"viability, T/C",[4],97.3%
same,"viability, T/C",[5],93.3%
same,"viability, T/C",[6],86.9%
same,"viability, T/C",[7],98.3%
same,"viability, T/C",[8],86.5%
same,"viability, T/C",[9],94.1%
same,"viability, T/C",[10],91.5%
same,"viability, T/C",[11],94.6%
same,"viability, T/C",[12],81.7%
same,"viability, T/C",[13],91.5%
same,"viability, T/C",[14],90.3%
same,"viability, T/C",[15],87.2%
same,"viability, T/C",[16],85.8%
same,"viability, T/C",[17],88.7%
same,"viability, T/C",[18],77.1%
same,"viability, T/C",[19],79.4%
same,"viability, T/C",[20],76.2%
same,"viability, T/C",[21],81.4%
same,"viability, T/C",[22],79.3%
same,"viability, T/C",[23],73.3%
same,"viability, T/C",[24],74.8%
same,"viability, T/C","second compound 3.16 µM, first compound 0.0316 µM",65.4%
same,"viability, T/C","second compound 3.16 µM, first compound 0.1 µM",59.8%
same,"viability, T/C","second compound 3.16 µM, first compound 0.316 µM",60.6%
same,"viability, T/C","second compound 3.16 µM, first compound 1 µM",67.2%
same,"viability, T/C","second compound 3.16 µM, first compound 3.16 µM",62.8%
same,"viability, T/C","second compound 3.16 µM, first compound 10 µM",54.9%
same,"viability, T/C","second compound 10 µM, first compound 0.0316 µM",54.8%
same,"viability, T/C","second compound 10 µM, first compound 0.1 µM",48.4%
same,"viability, T/C","second compound 10 µM, first compound 0.316 µM",50.3%
same,"viability, T/C","second compound 10 µM, first compound 1 µM",51.8%
same,"viability, T/C","second compound 10 µM, first compound 3.16 µM",49.4%
same,"viability, T/C","second compound 10 µM, first compound 10 µM",48.2%
